Consider 2 compounds from patent EP0423707A2, “Platinum complexes” (Bristol-Myers Squibb Company, priority 1989, dated 1991).

In assay [1] the test system is B16-F10 murine melanoma cells. The assay can be described thus: In vitro cytotoxicity, crystal violet staining after 72 hours incubation. The assay is classed as cell-based. As to the method: (§1) The cytotoxic activity of the platinum complexes were evaluated in vitro using B16-F10 murine melanoma cells and HCT-116 human colon carcinoma cells. The B16-F10 cell line was maintained cultured in Eagle's Minimum Essential Medium (MEM) with Earle's salts (Gibco; Grand Island, NY) enriched with 2 millimoles of L-glutamine, 2.06 millimoles of sodium pyruvate, insulin (0.26 units/ml), penicillin/streptomycin (10 units/milliliter and 10 micrograms/milliliter, respectively), MEM non-essential amino acids (0.6% Gibco; Grand Island, NY), and 10% fetal bovine serum (Hyclone; Logan, UT). The HCT-116 cells were grown in McCoy's 5A medium (modified, Gibco; Grand Island, NY) supplemented with 2 millimoles of L-glutamine, 0.12 millimoles of L-serine, 0.17 millimoles of asparagine, 1.5 millimoles of sodium pyruvate, MEM essential amino acids (0.67%, Gibco; Grand Island, NY), MEM vitamins (0.6%, Gibco; Grand Island, NY), fetal calf serum (10%, Hyclone; Logan, UT), and penicillin/streptomycin (10 units/milliliter and 10 micrograms/milliter, respectively). Both cell lines were incubated at 37°C in 5% CO₂/balance air high-humidity incubator.
(§2) Logarithmically growing cells were then harvested by mild trypsinization, and 4000 cells were added to each well of a 96-well microtiter plate (Costar; Cambridge, MA). The plates were incubated at 37°C in 5% CO₂ overnight to permit cell attachment to the plate. The cells were then treated with a platinum complex according to the present invention, cisplatin, or iproplatin and then incubated for 72 hours. After incubating, the plates were inverted and shaken to remove media, drug, and detached cells. Formalin (10%) in phosphate buffered saline was added and the cells fixed for 10 minutes. The fixative was then removed, the plates air dried, stained with 0.0075% crystal violet for 15 minutes, washed twice, and air dried. The stain is solubilized with 0.2 milliliters of 0.2 Molar AcOH/EtOH (1:1) and optical densities determined using a Dynatech MR600 microtiter plate reader (Dynatech; Chantilly, VA). IC50 values are calculated by linear regression analysis of absorption data.
(§3) For the above described in vitro cytotoxicity studies, the compounds are dissolved or suspended, depending on their solubility, in 0.9% Sodium Chloride or 10% ethanol in 0.9% Sodium Chloride. The compounds are prepared for in vivo treatment by dissolving or suspending in water (minimal amounts of Tween 80), 0.9% Sodium Chloride, or 10% ethanol in 0.9% Sodium Chloride. Olive oil or cotton seed oil are used for in vivo studies when the compounds are oil soluble compounds (see, for example, in Table 8, an oil soluble compound in olive oil, Example 9 (2-ethylhexanoate derivative), below).

The subject of assay [2] is HCT-116 human colon carcinoma cells. The description is as above. The note with it: HCT-116 cells. The assay is classed as cell-based. The method, then:
as §1, §2, §3

In assay [3] the test system is L1210 murine leukemia. The experiment in a line: Activity against L1210 murine leukemia, intraperitoneal implanted tumor. The assay is classed as in vivo, CDF1 mice. The conditions noted are these: single intraperitoneal dose on Day 1, at the dose producing the maximum effect, median survival time vs saline controls. As to the method: (§4) The platinum complexes according to the present invention were tested for antitumor activity against L1210 murine leukemia. CDF1 mice weighing 20 grams were inoculated intraperitoneally or intracerebrally with 10⁶ or 10⁵ ascites cells of L1210 leukemia, respectively.
(§5) Drug administration was initiated the day following intra-peritoneal tumor implantation or 3 days following intracerebral implant. The complexes were administered at various dose levels by intraperitoneal injection. Groups of 4 to 6 mice were used for each dose level, and they were treated with a single dose of the complex on the treatment day. A group of 10 saline treated control mice were included in each experiment. Cisplatin and iproplatin treated groups were included as positive controls in each experiment.
(§6) The mice were weighed before treatment and again on day 5 or 6, and the average weight change was used as a measure of toxicity. The animals were observed daily for mortality, and the experiments terminated after 30 days. Antitumor activity was determined based on percent T/C, which is the ratio of the median survival time of the drug treated group to the median survival time of the saline treated control group times 100.
(§7) A complex was considered active if it produced a T/C greater than or equal to 125 percent. […]

The test system of assay [4] is L1210 murine leukemia. The assay can be described thus: Activity against L1210 murine leukemia, intracerebral implanted tumor. The assay is classed as in vivo, CDF1 mice. The conditions noted are these: single intraperitoneal dose on Day 3, at the dose producing the maximum effect, median survival time vs saline controls. The method, then:
as §4, §5, §6, §7

Another assay relates to M5076 sarcoma. The experiment in a line: Activity against M5076 sarcoma, subcutaneous implant. The assay is classed as in vivo, BDF1 mice. The note with it: Days 5, 9, 13, and 17, at the dose producing the maximum effect; for MAXIMUM % T/C: median survival time vs controls; for MAXIMUM T-C: median time for tumors to reach 1 gram relative to controls. As to the method: Platinum complexes according to the present invention were additionally evaluated for further antitumor activity against M5076 sarcoma. BDF1 mice, 8 per group, were inoculated subcutaneously with a fragment of M5076 sarcoma.
Intraperitoneal or intravenous treatment with the complexes was initiated 5 days after implant and was continued on days 9, 13, and 17 for a total of 4 treatments. From 4 to 6 doses were tested for each compound under study.
A saline treated control group and cisplatin treated groups were included in each experiment. The mice were observed daily for survivors, and the experiments terminated after 75-80 days.
Antitumor activity was determined based on a) median survival time of the drug treated mice relative to that of the controls (percent T/C) and b) the median time for tumors to reach 1 gram in drug treated mice relative to the controls (T-C). A complex was considered active if it produced a T-C greater than or equal to 13 days.
as §3

A further assay relates to P388 murine leukemia. The experiment in a line: Activity against P388 murine leukemia, intravenous inoculation, oral treatment. The assay is classed as in vivo, CDF1 mice. The note with it: administered orally (by gavage) 1 time on Day 1; at the dose producing the maximum effect; median survival time vs saline controls. As to the method:
The platinum complexes according to the present invention were tested for antitumor activity against P388 murine leukemia. CDF1 mice weighing 20 grams were inoculated intravenously with 10⁶ ascites cells of P388 leukemia.
Drug administration of the platinum complexes was initiated on the day following the intravenous tumor inoculation. The complexes were administered at various dosage levels by oral gavage. Groups of 6 mice were used for each dose level, and they were treated with a single dose of the complex on the treatment day. A group of 10 saline treated control mice were included in each experiment. Cisplatin treated groups were included as positive controls in each experiment.
as §6
A complex was considered active if it produced a T/C greater than or equal to 125 percent.
For the above described in vitro cytotoxicity studies, the compounds are dissolved or suspended, depending on their solubility, in 0.9% Sodium Chloride or 10% ethanol in 0.9% Sodium Chloride. […]

On to Iproplatin, for which the “IC50 B16” value in assay [1] was 66.8-243 micrograms/milliter. Moreover, in assay [2], the “IC50 HCT116” value is 20.2-31.2 micrograms/milliter. Further, the “MAXIMUM % T/C” value with L1210 murine leukemia [3] is 143-171%; in the assay on L1210 murine leukemia [4], 157%; in the assay with M5076 sarcoma (route ip), 160+^b %. The “MAXIMUM T-C” value in the assay on M5076 sarcoma (route ip) amounted to 34.5 days.

Take `N.N.[Cl][Pt][Cl]` [Cisplatin]: the “IC50 B16” value in assay [1] was 5.4-7.3 micrograms/milliter. Also, the “IC50 HCT116” value in assay [2] is reported as 4.2-4.5 micrograms/milliter. Moreover, the “MAXIMUM % T/C” value in the assay with L1210 murine leukemia [3] is 143-207%; in the assay with L1210 murine leukemia [4], 114%; in the assay on M5076 sarcoma (route ip), 126%; with M5076 sarcoma (route iv), 114-126%; in the assay with P388 murine leukemia, 173%. The results for the “MAXIMUM T-C” value with M5076 sarcoma (route ip) and in the assay with M5076 sarcoma (route iv) were 33 days and 25 to 27.3 days, respectively.
